Results taken from US20020028809A1 (SUNTORY LIMITED, priority 1999, published 2002).
Read-outs that look alike come from different tables or passages of the source.

Legend:
[1] = target: T1, human α4β2 subtype of nicotinic acetylcholine receptors (Homo sapiens, UniProt P17787+P43681); experiment: Agonist activities at human α4β2 subtype of nicotinic acetylcholine receptors expressed in Xenopus oocytes (membrane potential holding method); format: cell-based
T1 construct: expressed in transfected cells; host or cells: Xenopus laevis oocytes injected with 50 ng each of α4 and β2 cRNA (pSP64 polyA vector)
T1 sequence (P43681 29-627 limits assumed): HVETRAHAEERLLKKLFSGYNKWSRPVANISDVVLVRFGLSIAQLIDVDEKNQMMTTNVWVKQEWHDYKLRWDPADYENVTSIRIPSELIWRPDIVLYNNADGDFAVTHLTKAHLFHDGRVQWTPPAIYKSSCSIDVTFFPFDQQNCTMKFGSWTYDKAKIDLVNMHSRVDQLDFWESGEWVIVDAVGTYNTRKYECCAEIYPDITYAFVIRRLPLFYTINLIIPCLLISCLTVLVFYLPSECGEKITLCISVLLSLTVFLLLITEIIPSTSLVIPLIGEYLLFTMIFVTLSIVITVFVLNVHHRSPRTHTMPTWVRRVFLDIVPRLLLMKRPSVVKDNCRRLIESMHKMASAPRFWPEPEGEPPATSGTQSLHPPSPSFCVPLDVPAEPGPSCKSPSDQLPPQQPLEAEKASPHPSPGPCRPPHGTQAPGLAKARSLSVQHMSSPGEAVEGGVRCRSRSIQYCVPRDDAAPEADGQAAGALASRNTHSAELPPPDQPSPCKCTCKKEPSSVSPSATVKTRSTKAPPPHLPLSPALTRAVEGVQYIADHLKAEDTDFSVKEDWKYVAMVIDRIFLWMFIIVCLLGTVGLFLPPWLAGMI
T1 sequence (P17787 26-502): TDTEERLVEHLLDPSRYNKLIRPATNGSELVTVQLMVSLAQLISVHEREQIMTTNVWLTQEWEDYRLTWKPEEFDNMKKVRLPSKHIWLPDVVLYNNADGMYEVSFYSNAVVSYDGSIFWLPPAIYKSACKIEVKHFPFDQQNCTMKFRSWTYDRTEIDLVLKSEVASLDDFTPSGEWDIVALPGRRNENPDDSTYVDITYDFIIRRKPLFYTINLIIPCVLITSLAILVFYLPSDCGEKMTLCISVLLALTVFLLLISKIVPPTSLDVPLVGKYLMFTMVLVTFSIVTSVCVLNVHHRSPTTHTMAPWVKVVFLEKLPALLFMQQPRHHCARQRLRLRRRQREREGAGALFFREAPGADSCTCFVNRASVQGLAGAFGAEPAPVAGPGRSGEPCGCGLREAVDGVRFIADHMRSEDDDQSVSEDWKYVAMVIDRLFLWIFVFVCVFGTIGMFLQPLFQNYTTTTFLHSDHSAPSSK
Protocol: Agonist effect in human α4β2 subtype of nicotinic acetylcholine receptors are examined by using human nicotinic acetylcholine receptors prepared in oocytes of Xenopus laevis, which is injected with cRNA from the corresponding cloning cDNA of human α4 and β2 subunits of nicotinic acetylcholine receptors, and to measure the expression of electric response by adding the test compounds to perfusion solution by means of membrane potential holding method.
Agonist Activities at Human α4β2 Subtype of Nicotinic Acetylcholine Receptors
(1) Preparation of cRNA of Human α4β2 Subtype of Nicotinic Acetylcholine Receptors
Obtained hnACh-R α4 cDNA and hnACh-R β2 cDNA were inserted to the cRNA expression vector (pSP64 polyA) having SP6 RNA promoter to construct hnACh-R α4/pSP64 polyA and hnACh-R β2/pSP64 polyA, respectively. After cutting from expression vector by restriction enzyme (EcoRI), transcription was performed by affecting SP6 RNA polymerase in the presence of cap analogues to obtain hnACh-R α4 cRNA and hnACh-R β2 cRNA, respectively.
(2) Expression of Human α4β2 Subtype Nicotinic Acetylcholine Receptors in Xenopus oocytes
Oocytes were purchased from Kitanihonseibutsukyohzai Co., Ltd., which were already enucleated from Xenopus laevis, and used in this experiment.
The oocytes were treated with collagenase (Sigma type I; 1 mg/ml) in calcium-free modified Birth's solution (88 mM of NaCl, 1 mM of KCl, 2.4 mM of NaHCO3, 0.82 mM of MgSO4, 15 mM of HEPES, pH 7.6) under gently stirring at room temperature for 90 minutes, and washed out the enzyme from the tissue. Then, oocytes were separated from ovarian follicle by tweezers, and isolated oocytes were placed in antibiotics containing modified Birth's solution (88 mM of NaCl, 1 mM of KCl, 2.4 mM of NaHCO3, 0.82 mM of MgSO4, 15 mM of HEPES, pH 7.6, and 0.1 v/v% of mixture solution containing of penicillin and streptomycin for incubation; Sigma Co.). […] In oocytes, heterogeneous quintuple [(α4)2(β2)3] was composed by translation of injected cRNAs, and ion channel receptors were constructed on cell membrane.
(3) Agonist Activities at Human α4β2 Subtype of Nicotinic Acetylcholine Receptors
Recordings of response at human α4β2 subtype of nicotinic acetylcholine receptors by means of membrane potential holding method were performed as follow. […] Test compounds were added to the perfusion solution, and recorded the peak strength of induced inward current. In order to normalize the response of test compounds, the response with acetylcholine (Ach) were recorded before and after application of the test compounds. Generally in the oocytes just after isolated, the response of intrinsic muscarinic acetylcholine receptors, which is inward electric current caused by activation of calcium dependence chloride ion channels with increase of the intracellular calcium concentration by stimulation of receptors, is observed. […] Therefore, the responses observed in oocytes with injection of hnACh-R α4 cRNA and hnACh-R β2 cRNA, i.e., the inward current induced by the intracellular influx of sodium ion according to the stimulation of receptors, would be the freshly observed responses of human α4β2 subtype nicotinic acetylcholine receptors.

[2] = target: T2, α1β1γδ subtype of nicotinic acetylcholine receptors (Rattus norvegicus, UniProt P18916+P25108+P25109+P25110); experiment: Binding assays at α1β1γδ subtype of nicotinic acetylcholine receptors ([3H]-α-bungarotoxin, rat muscle extract); details: for remaining activity at 100 µM / remaining activity at 1000 µM: read-out: control % of [3H]-α-Bgt binding
T2 construct: Native receptor, no construct: "Triton X100 (2% w/v) was added
T2 sequence (P25108 21-457): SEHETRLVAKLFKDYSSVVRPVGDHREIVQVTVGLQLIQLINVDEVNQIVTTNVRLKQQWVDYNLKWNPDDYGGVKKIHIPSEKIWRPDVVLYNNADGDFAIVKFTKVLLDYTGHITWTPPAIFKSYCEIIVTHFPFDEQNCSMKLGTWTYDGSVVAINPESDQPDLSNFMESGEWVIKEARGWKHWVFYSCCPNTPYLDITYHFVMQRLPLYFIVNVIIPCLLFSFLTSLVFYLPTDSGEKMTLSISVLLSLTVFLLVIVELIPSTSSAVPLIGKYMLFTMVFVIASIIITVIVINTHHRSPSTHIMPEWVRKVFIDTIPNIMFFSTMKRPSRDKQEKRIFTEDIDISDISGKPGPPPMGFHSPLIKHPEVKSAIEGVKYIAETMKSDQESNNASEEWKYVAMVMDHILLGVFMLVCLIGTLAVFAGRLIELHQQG
T2 sequence (P25110 22-517): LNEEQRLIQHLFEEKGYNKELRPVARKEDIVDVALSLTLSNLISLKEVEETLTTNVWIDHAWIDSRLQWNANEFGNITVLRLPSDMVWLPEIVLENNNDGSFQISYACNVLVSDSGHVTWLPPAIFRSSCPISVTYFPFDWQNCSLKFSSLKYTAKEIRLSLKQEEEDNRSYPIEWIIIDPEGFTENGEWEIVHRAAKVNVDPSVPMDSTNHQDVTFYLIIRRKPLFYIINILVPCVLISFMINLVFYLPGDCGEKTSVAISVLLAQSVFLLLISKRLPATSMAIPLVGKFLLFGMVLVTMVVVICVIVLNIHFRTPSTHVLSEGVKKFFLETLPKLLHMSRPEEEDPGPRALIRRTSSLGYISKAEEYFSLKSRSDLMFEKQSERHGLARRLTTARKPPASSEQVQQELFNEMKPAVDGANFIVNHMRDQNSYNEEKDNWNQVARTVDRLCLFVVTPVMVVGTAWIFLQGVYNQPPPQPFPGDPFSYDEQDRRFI
T2 sequence (P25109 24-501): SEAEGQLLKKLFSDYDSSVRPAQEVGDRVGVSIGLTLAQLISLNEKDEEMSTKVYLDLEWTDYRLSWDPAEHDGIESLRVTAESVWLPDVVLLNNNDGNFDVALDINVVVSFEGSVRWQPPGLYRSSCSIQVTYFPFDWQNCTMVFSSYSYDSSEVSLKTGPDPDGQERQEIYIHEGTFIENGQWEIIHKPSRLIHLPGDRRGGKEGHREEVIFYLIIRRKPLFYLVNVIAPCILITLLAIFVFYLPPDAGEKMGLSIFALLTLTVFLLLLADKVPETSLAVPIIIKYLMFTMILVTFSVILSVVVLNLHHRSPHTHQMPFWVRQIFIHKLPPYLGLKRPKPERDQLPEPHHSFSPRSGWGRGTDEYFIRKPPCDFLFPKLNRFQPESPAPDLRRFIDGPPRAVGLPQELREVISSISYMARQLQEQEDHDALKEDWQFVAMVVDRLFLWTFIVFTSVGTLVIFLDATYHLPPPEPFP
Excerpt: (§1) Methods for evaluating binding capabilities of the compounds at nicotinic acetylcholine receptors are different by subtypes of receptors. Binding capabilities of the compounds at α4β2 nicotinic acetylcholine receptors are examined using rat brain membrane obtained from whole homogenized brain, and determining the inhibiting rate of the compounds against [^3H]-cytisine binding to said brain membrane. Furthermore, the binding capabilities of the compounds at α1β1γδ nicotinic acetylcholine receptors are examined using homogenized rat muscle, and determining the inhibiting rate of the compounds against [^3H]-α-bungarotoxin binding to said muscle homogenate.
Binding Assays at α1β1γδ Subtype of Nicotinic Acetylcholine Receptors
Affinity of the compounds of the present invention to α1βγδ subtype of nicotinic acetylcholine receptors was measured by the following method, which was modified method described by Garcha H. S., Thomas P., Spivak C.
(1) Preparation of Rat Skeletal Muscles Containing α1β1γδ Subtype of Nicotinic Acetylcholine Receptors
The substantially same animals described in the Biological Experiment 1 were used.
Isolation of α1β1γδ subtype of nicotinic acetylcholine receptors was performed as follow. That is, rat posterior skeletal muscles were isolated just after sacrificed by decapitation, washed with ice-cooled saline solution and then frozen at −80° C. with liquid nitrogen and stored till using. After thawing the frozen muscles, tissue was homogenized (40% w/v) with buffer solution [2.5 mM of sodium phosphate buffer (pH:7.2), 90 mM of NaCl, 2 mM of KCl, 1 mM of EDTA, 2 mM of benzamidine, 0.1 mM of benzethonium chloride, […], 0.01% of sodium azide] in Waring blender (Waring blender 34BL97; WARING PRODUCTS DIVISION DYNAMICS CORPORATION OF AMERICA) for 60 seconds. The homogenate were centrifuged under 20,000×G for 60 minutes at 4° C. The supernatant was separated and the resulting pellet was added to the same buffer (1.5 ml/g wet weight), and homogenized under the same conditions. Triton X100 (2% w/v) was added and the mixture was stirred for 3 hours at 4° C. The centrifugation at 100,000×G for 60 minutes at 4° C. yielded the rat muscle extract as supernatant. This was stored at 4° C. for up to 4 weeks, and used for binding assays at receptors.
(2) Experiments of α1β1γδSubtype of Nicotinic Acetylcholine Receptors Binding
Receptors binding experiments were performed as follow. That is, the extract of rat muscle containing 600-900 μg of protein was added to test tubes containing test compounds and incubated for 15 minutes at 37° C. Then, to this mixture was added 1 nM of [^3H]-α-bungarotoxin (α-Bgt) and further incubated for 2 hours. The samples were isolated by vacuum filtration onto Whatman GF/B filters, which were prerinsed with 0.5% polyethylenimine just prior to sample filtration, using Brandel multi manifold cell harvester. The filters were rapidly rinsed with washing solution (10 mM of KH2PO4, 150 mM of NaCl, pH 7.2, room temperature) (5×1 ml). The filters were counted in 3 ml of clearsol I (Nacalai Tesque Inc.). Determination of nonspecific binding was incubated in the presence of 1 μM α-Bgt.
In the receptor binding experiments, said buffer solution was added for adjusting the final concentration of BSA to be 0.05%.
Analyses of the experimental results were conducted by the same way as described in the Biological Experiment 1.

[3] = target: T3, α4β2 subtype of nicotinic acetylcholine receptors (Rattus norvegicus, UniProt P09483+P12390); experiment: Binding assays at α4β2 subtype of nicotinic acetylcholine receptors ([3H]-cytisine, rat brain membrane)
T3 construct: examined using rat brain membrane obtained from whole homogenized brain; from tissue; host or cells: whole brain of Fischer-344 male rats, membrane pellet
T3 sequence (P09483 31-630): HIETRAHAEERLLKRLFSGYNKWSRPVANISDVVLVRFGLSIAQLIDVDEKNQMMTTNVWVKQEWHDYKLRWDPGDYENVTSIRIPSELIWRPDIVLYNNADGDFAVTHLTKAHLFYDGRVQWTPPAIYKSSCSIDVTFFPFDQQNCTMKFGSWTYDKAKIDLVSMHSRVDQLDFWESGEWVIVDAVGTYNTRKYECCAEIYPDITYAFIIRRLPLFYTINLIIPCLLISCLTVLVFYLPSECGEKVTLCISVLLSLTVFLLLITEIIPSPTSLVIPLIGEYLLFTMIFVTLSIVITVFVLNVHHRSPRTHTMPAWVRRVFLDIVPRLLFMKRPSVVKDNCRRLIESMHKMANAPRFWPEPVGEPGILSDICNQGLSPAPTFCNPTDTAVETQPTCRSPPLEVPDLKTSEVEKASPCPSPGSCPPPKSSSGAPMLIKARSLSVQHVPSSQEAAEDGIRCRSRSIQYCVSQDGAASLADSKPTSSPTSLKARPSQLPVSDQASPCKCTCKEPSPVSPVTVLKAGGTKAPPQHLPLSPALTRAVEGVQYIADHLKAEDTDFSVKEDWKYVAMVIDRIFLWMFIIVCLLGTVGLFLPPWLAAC
T3 sequence (P12390 25-500): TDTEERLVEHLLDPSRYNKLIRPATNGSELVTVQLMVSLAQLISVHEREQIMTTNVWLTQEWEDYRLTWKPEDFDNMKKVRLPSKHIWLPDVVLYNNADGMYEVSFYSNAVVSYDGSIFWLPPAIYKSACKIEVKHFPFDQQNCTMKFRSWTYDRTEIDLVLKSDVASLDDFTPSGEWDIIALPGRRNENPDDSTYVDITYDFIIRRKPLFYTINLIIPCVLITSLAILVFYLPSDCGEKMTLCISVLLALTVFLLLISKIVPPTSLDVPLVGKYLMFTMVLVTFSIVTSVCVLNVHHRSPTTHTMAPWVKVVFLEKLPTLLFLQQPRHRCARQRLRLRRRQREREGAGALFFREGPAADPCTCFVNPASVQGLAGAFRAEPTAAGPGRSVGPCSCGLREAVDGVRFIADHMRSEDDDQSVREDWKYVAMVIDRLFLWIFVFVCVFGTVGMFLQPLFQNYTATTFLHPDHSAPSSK
Excerpt: as §1
Binding assays at α4β2 Subtype of Nicotinic Acetylcholine Receptors
(1) Preparation of Rat Brain Membrane Containing α4β2 Subtype of Nicotinic Acetylcholine Receptors
Rats were housed in the breeding cage controlled of the room temperature at 23±1° C., and the humidity of 55±5% for 1 to 4 weeks. Rats (3 to 4 rats per a cage) were housed with lights on for 12 hours daily (from 7:00 to 19:00), and allowed free access to food and water.
Preparation of rat brain membrane containing α4β2 subtype of nicotinic acetylcholine receptors was performed as follow. That is, rat brains were isolated just after sacrificed by decapitation, washed with ice-cooled saline solution and then frozen at −80° C. with liquid nitrogen and stored till using. After thawing the frozen brain, the brain was homogenized in 10 volumes of ice-cooled buffer solution (50 mM of Tris-HCl, 120 mM of NaCl, 5 mM of KCl, 1 mM of MgCl2, 2mM of CaCl2; pH 7.4; 4° C.) using homogenizer (HG30, Hitachi Kohki Ltd.) for 30 seconds, and the homogenate were centrifuged under 1,000×G for 10 minutes at 4° C. The resulting supernatant was separated and the pellet was homogenized again with half volume of aforementioned prior buffer solution and centrifuged under the same conditions. Combined supernatant was further centrifuged under 40,000×G for 20 minutes at 4° C. The pellet was suspended in buffer solution and used for binding assays at receptors.
(2) Experiments of α4β2 Subtype of Nicotinic Acetylcholine Receptors Binding
Suspensions of membrane pellets containing 400-600 μg of protein were added to test tubes containing test compounds and [^3H]-cytisine (2 nM) in a final volume of 200 μl and incubated for 75 minutes in ice-cooled bath. The samples were isolated by vacuum filtration onto Whatman GF/B filters, which were prerinsed with 0.5% polyethylenimine just prior to sample filtration, using Brandel multi manifold cell harvester. The filters were rapidly washed with buffer solution (3×1 ml). The filters were counted in 3 ml of clearsol I (Nacalai Tesque Inc.).
Analyses of the experimental results were conducted using the Accufit Competition Program (Beckman Ltd.).

[4] = at 1 μM of test compound, rat brain membrane
[5] = at 10 μM of test compound, rat brain membrane

SMILES | Ki [2] [nM] | Ki [3] [nM] | remaining activity at 100 µM [2] [%] | remaining activity at 1000 µM [2] [%] | also measured
N=c1sccn1Cc1cccnc1 [Compound 1, 2-imino-3-(3-pyridyl)methyl-2,3-dihydrothiazole] | 4900 | 4.84 |  |  | Emax at 100 µM ([1]; read-out: Agonist activity: control % by response at 100 μM of the test compound): 20%
N=c1ccc(Cl)nn1Cc1ccc(Cl)nc1 [Compound 6, 6-chloro-2-(6-chloro-3-pyridyl)methyl-3-imino-2,3-dihydropyridazine] |  | 15 | 44 | 15 | EC50 [1]: 86000 nM
N=c1ncc(-c2ccccc2)cn1Cc1ccc(Cl)nc1 [Compound 46, 1-(6-chloro-3-pyridyl)methyl-2-imino-5-phenyl-1,2-dihydropyrimidine] |  | 273 | 88 | 66 | 
N=c1ccc([N+](=O)[O-])cn1Cc1ccc(Cl)nc1 [Compound 47, 1-(6-chloro-3-pyridyl)methyl-2-imino-5-nitro-1,2-dihydropyridine] |  | 227 | 93 | 73 | 
Cc1ccc(Cn2ccccc2=N)cn1 [Compound 48, 2-imino-1-(6-methyl-3-pyridyl)methyl-1,2-dihydropyridine] | 56300 | 47.9 |  |  | 
N=C1SCCN1Cc1cccnn1 [Compound 49, 2-imino-3-(3-pyridazinyl)methylthiazolidine] |  |  | 18 | 14 | control % of [3H]-cytisine binding [3, 4]: (62%,; control % of [3H]-cytisine binding [3, 5]: 16%)
Cc1nc(N)n(Cc2ccc(Cl)nc2)c1C [Compound 51, 2-amino-1-(6-chloro-3-pyridyl)methyl-4,5-dimethylimidazole] |  |  | 103 | 53 | control % of [3H]-cytisine binding [3, 4]: (96%; control % of [3H]-cytisine binding [3, 5]: 33%)
Nc1nccn1Cc1cncnc1 [Compound 52, 2-amino-1-(5-pyrimidyl)methylimidazole] | 302000 | 24.9 |  |  | 
Cc1cn(Cc2ccc(Cl)nc2)c(N)n1 [Compound 53, 2-amino-1-(6-chloro-3-pyridyl)methyl-4-methylimidazole] |  | 226 | 98 | 56 | 
Nc1nccn1Cc1cnc(Cl)c(Cl)c1 [Compound 54, 2-amino-1-(5,6-dichloro-3-pyridyl)methylimidazole] |  | 9.72 | 113 | 52 | 
Nc1nccn1Cc1ccc(Cl)cc1 [Compound 58, 2-amino-i-(4-chlorobenzyl)imidazole] |  |  | 62 | 37 | control % of [3H]-cytisine binding [3, 4]: (62%,; control % of [3H]-cytisine binding [3, 5]: 16%)
N=c1sccn1Cc1ccc(Cl)c(Cl)c1 [Compound 60, 3-(3,4-dichlorobenzyl)-2-imino-2,3-dihydrothiazole] | 61300 | 31.9 |  |  | 
N=c1sccn1Cc1cccc([N+](=O)[O-])c1 [Compound 61, 2-imino-3-(3-nitrobenzyl)-2,3-dihydrothiazole] | 219000 | 65.4 |  |  | 
Cc1ccc(Cn2ccsc2=N)cc1 [Compound 63, 2-imino-3-(4-methylbenzyl)-2,3-dihydrothiazole] | 364000 |  |  |  | Ki ([3]; rat brain membrane, [3H]-cytisine (2 nM), read-out: Affinities for receptors Ki α4β2): 160 nM
N=c1sccn1Cc1cccc(C(F)(F)F)c1 [Compound 64, 2-imino-3-(3-trifluoromethylbenzyl)-2,3-dihydrothiazole] |  |  | 77 | 23 | control % of [3H]-cytisine binding [3, 4]: (60%,; control % of [3H]-cytisine binding [3, 5]: 15%)
N#Cc1ccc(Cn2ccsc2=N)cc1 [Compound 65, 3-(4-cyanobenzyl)-2-imino-2,3-dihydrothiazole] | 311000 | 181 |  |  | 
N=c1sccn1Cc1c[nH]c2ncccc12 [Compound 66] | 184000 | 16.1 |  |  | 
